Columns and labels:
Bacillus subtilis NadD = Bacillus subtilis NadD (Bacillus subtilis, UniProt P54455); assay type: biochemical
CoADR (JCVISYN3A_0887) = assay type: biochemical, Mycoplasma mycoides subsp. capri; settings: pH 7.5
human DJ-1 = molecular target: T1, human DJ-1 (Homo sapiens, UniProt Q99497); experiment: deglycase assay; assay type: biochemical; settings: cited from earlier work
T1 construct: gene PARK7; recombinant; details in supplement
T1 sequence (Q99497 1-189 limits assumed): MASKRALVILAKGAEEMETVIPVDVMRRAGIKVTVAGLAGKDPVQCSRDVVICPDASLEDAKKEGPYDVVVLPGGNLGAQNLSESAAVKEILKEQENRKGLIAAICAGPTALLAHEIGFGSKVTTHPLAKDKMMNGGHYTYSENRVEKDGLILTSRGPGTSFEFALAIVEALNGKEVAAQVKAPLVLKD

[1] = tested on: JCVISYN3A_0400 (DJ-1 homolog); assay type: biochemical, Mycoplasma mycoides subsp. capri

Bacillus subtilis NadD, sequence (P54455 whole entry): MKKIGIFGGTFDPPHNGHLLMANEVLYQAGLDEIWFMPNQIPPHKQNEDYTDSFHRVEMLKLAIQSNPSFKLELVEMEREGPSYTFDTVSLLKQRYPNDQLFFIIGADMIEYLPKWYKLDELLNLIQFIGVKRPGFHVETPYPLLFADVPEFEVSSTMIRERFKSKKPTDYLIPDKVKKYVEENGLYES

Which relative activity (Bacillus subtilis NadD) does the source give for `Nc1ncnc2c1ncn2[C@@H]1O[C@H](COP(=O)(O)OP(=O)(O)OP(=O)(O)O)[C@@H](O)[C@H]1O` [ATP] here?
The relative activity was “whereas B. subtilis NadD strongly preferred ATP”.

Which Km (CoADR (JCVISYN3A_0887)) does the source give for `CC(C)(COP(=O)(O)OP(=O)(O)OC[C@H]1O[C@@H](n2cnc3c(N)ncnc32)[C@H](O)[C@@H]1OP(=O)(O)O)[C@@H](O)C(=O)NCCC(=O)NCCSSCCNC(=O)CCNC(=O)[C@H](O)C(C)(C)COP(=O)(O)OP(=O)(O)OC[C@H]1O[C@@H](n2cnc3c(N)ncnc32)[C@H](O)[C@@H]1OP(=O)(O)O` [CoAD] here?
The Km was 170 µM.

With `CC(=O)C(O)SCCNC(=O)CCNC(=O)[C@H](O)C(C)(C)COP(=O)(O)OP(=O)(O)OC[C@H]1O[C@@H](n2cnc3c(N)ncnc32)[C@H](O)[C@@H]1OP(=O)(O)O` (stereo partly shown) [methylglyoxal-CoA hemithioacetal] as the molecule, how does the Km (human DJ-1) read?
The Km was 144 ± 64 µM.

Which Km [1] does the source give for `CC(=O)C=O` [methylglyoxal] here?
Its Km is 1230 ± 300 µM.

From article PMC9426524 (mBio, 2022)
